Source: publication PMC9848351, “Discovery of new pyridine-quinoline hybrids as competitive and non-competitive PIM-1 kinase inhibitors with apoptosis induction and caspase 3/7 activation capabilities” (Journal of Enzyme Inhibition and Medicinal Chemistry, 2023)

Experiments:
[1] = system: normal human lung fibroblast Wi-38 cell line; experiment: MTT cytotoxicity on normal cells; type: cell-based; conditions: Wi-38, 72 h, MTT, mean ± SEM; for EC50: Homo sapiens, 50% cell viability; for Wi-38 EC100: safe dose, 100% cell viability
Procedure: Cytotoxicity of the tested compounds was evaluated using normal human lung fibroblast Wi-38 cell line compared to currently used anticancer drug (doxorubicin) using MTT method was used for assaying cell viability[26] (Supplementary Page S55).
Cytotoxicity test is one of the biological evaluations and screening tests that use human normal and cancer cells in-vitro to observe the effect of the studied compounds on their growth using MTT-based cytotoxicity. Microculture MTT method[26] was used to determine cytotoxic activity of the newly synthesised compounds against normal human lung fibroblast (Wi-38) using doxorubicin (Dox) as standard anticancer drug. The highest IC50 and EC100 values illustrate that the compounds were safe on the proliferation of normal human cells. […]. page 47:
(§1) Cytotoxicity of the tested compounds was evaluated using normal human lung fibroblast Wi-38 cell line compared to currently used anticancer drug (doxorubicin).
Firstly, Wi-38 cell line was subcultured in DMEM medium-contained 10% fetal bovine serum (FBS), then, seeded as 5x10^3 cells per well in 96-well cell culture plate and incubated at 37 °C in 5% CO 2 incubator. Serial concentrations of these compounds and doxorubicin (Dox) were incubat ed with Wi-38 cells for 72 h after 24 h for cell attachment. MTT method was used for assaying cell viability 25. Twenty microliters of 5 mg/ml MTT (Sigma, USA) was added to each well and the plate was incubated at 37 °C for 3 h. Then MTT solution was removed, 100 µl DMSO was used and the absorbance of each well was measured with a microplate reader ( BMG LabTech, Germany) at 570 nm. The effective concentration (IC 50) and safe dose (EC100) values of the tested compounds that cause 50% and 100% cell viability were estimated by the Graphpad Instat software. […]

[2] = system: liver cancer cell line (HepG-2); experiment: MTT anticancer activity, HepG-2; type: cell-based, human; conditions: Homo sapiens, HepG2; HepG-2, 72 h, MTT; mean ± SEM
Procedure: (§2) Anticancer effect of the above-mentioned compounds was evaluated using four human cancer cell lines. Colon cancer cells (Caco-2), myeloid leukaemia cell line (NFS-60), liver cancer cell line (HepG-2) and prostate cancer cell line (PC-3) using MTT method was used for assaying cell viability[26] (Supplementary Page S55).
(§3) All final compounds were evaluated against four human cancer cell lines namely; liver cancer (HepG2) (ATCC® HB-8065™), colon cancer (Caco-2) (ATCC® HTB-37™), leukaemia cancer (NFS-60) (ATCC® CRL-1838™), and prostate cancer (PC-3) (ATCC® CRL-1435™) using doxorubicin (Dox) as the reference drug being widely used in tumour management utilising microculture MTT assay, declared by Mosmann[26] (Table 1 in Supplementary Material, Figures 5–8). […]
(§4) MTT method was used for assaying cell viability 25. Twenty microliters of 5 mg/ml MTT (Sigma, USA) was added to each well and the plate was incubated at 37 °C for 3 h. Then MTT solution was removed, 100 µl DMSO was used and the absorbance of each well was measured with a microplate reader ( BMG LabTech, Germany) at 570 nm. The effective concentration (IC 50) and safe dose (EC100) values of the tested compounds that cause 50% and 100% cell viability were estimated by the Graphpad Instat software.
(§5) Determination of the anticancer activity
(§6) Anticancer effect of the above-mentioned compounds was evaluated using four human cancer cell lines. Colon cancer cells (Caco-2) were maintained in DMEM (Lonza, USA) containing 10% FBS while myeloid leukemia cell line (NFS-60), liver cancer cell line (HepG-2) and prostate cancer cell line (PC-3) were cultured in RPMI-1640 (Lonza, USA) supplemented with 10% FBS. All cancer cells (5x10^3 cells/well) were seeded in sterile 96-well plates. After 24h, serial concentrations of the tested compounds and Dox were incubated with four cancer cell lines for 72 h at 37 °C in 5% CO2 incubator. MTT method was done as described above. The Graphpad Instat software was used for calculating the half maximal inhibitory concentration (IC50) values. Furthermore, phase contrast inverted microscope with a digital camera (Olympus, Japan) was used for investigating […]
(§7) safest anticancer compounds. […]

[3] = system: Colon cancer cells (Caco-2); experiment: MTT anticancer activity, Caco-2; type: cell-based, human; conditions: for IC50: Caco-2, 72 h, MTT, mean ± SEM; for Caco-2 SI: selectivity index, Wi-38 versus Caco-2
Procedure: as §2
All final compounds were evaluated against four human cancer cell lines namely; liver cancer (HepG2) (ATCC® HB-8065™), colon cancer (Caco-2) (ATCC® HTB-37™), leukaemia cancer (NFS-60) (ATCC® CRL-1838™), and prostate cancer (PC-3) (ATCC® CRL-1435™) using doxorubicin (Dox) as the reference drug being widely used in tumour management utilising microculture MTT assay, declared by Mosmann[26] (Table 1 in Supplementary Material, Figures 5–8).
as §1
Firstly, Wi-38 cell line was subcultured in DMEM medium-contained 10% fetal bovine serum (FBS), then, seeded as 5x10^3 cells per well in 96-well cell culture plate and incubated at 37 °C in 5% CO 2 incubator. Serial concentrations of these compounds and doxorubicin (Dox) were incubat ed with Wi-38 cells for 72 h after 24 h for cell attachment. MTT method was used for assaying cell viability 25. Twenty microliters of 5 mg/ml MTT (Sigma, USA) was added to each well and the plate was incubated at 37 °C for 3 h. Then MTT solution was removed, 100 µl DMSO was used and the absorbance of each well was measured with a microplate reader ( BMG LabTech, Germany) at 570 nm. The effective concentration (IC 50) and safe dose (EC100) values of the tested compounds that cause 50% and 100% cell viability were estimated by the Graphpad Instat software.
as §5, §6, §7

[4] = system: prostate cancer cell line (PC-3); experiment: MTT anticancer activity, PC-3; type: cell-based, human; conditions: PC-3, 72 h, mean ± SEM
Procedure: as §2, §3, §4, §5, §6, §7

[5] = system: myeloid leukaemia cell line (NFS-60); experiment: MTT anticancer activity, NFS-60; type: cell-based; conditions: NFS-60, 72 h, MTT; mean ± SEM
Procedure: as §2, §3, §4, §5, §6, §7

Row | SMILES | EC50 [1] [nM] | Wi-38 EC100 [1] [µM] | IC50 [2] [nM] | IC50 ([3]; Homo sapiens) [nM] | Caco-2 SI [3] | IC50 ([4]; Homo sapiens, 72 h) [nM] | IC50 [5] [nM] | melting point [°C] | IC50 [3] [nM] | IC50 [4] [nM]
1 | CC(=O)Oc1cccc(-c2cc(-c3cc4ccccc4nc3N3CCOCC3)c(C#N)c(=O)[nH]2)c1 [7a, 3-(5-Cyano-4-(2-morpholin-4-yl-quinolin-3-yl)-6-oxo-1,6-dihydropyridin-2-yl)phenyl acetate] | 174 ± 5 | 0.102 ± 0.01 | 49.5 ± 0.1 | 79.9 ± 3 | 2.178 | 140 ± 20 | 145 ± 2 | > 300 |  | 
2 | COc1ccc2[nH]c(=O)c(-c3cc(-c4cccc(O)c4)nc(N)c3C#N)cc2c1 [15c, 2-Amino-6-(3-hydroxyphenyl)-4-(6-methoxy-2-oxo-1,2-dihydroquinolin-3-yl)pyridine-3-carbonitrile] | 121 ± 2 | 0.101 ± 0.005 | 107 ± 11 | 141 ± 21 | 0.858 | 143 ± 13 | 122 ± 1 | 259 to 260 |  | 
3 | N#Cc1c(-c2cc3ccccc3nc2N2CCOCC2)cc(-c2cccc(O)c2)nc1OCC(=O)O [9a, 2-((3-Cyano-6-(3-hydroxyphenyl)-4-(2-morpholin-4-yl-quinolin-3-yl)pyridin-2-yl)oxy)acetic acid] | 159 ± 4 | 0.0254 ± 0.002 | 78.2 ± 2 | 73.9 ± 0.1 | 2.152 | 84.7 ± 3 | 92.3 ± 0.1 | 179 to 180 |  | 
4 | COc1ccc2nc(N3CCOCC3)c(-c3cc(-c4cccc(O)c4)nc(OCC(=O)O)c3C#N)cc2c1 [9c, 2-((3-Cyano-6-(3-hydroxyphenyl)-4-(6-methoxy-2-morpholin-4-yl-quinolin-3-yl)pyridin-2-yl)oxy)acetic acid] | 276 ± 2 | 0.0754 ± 0.003 | 86.7 ± 3 | 52.6 ± 0.1 | 5.247 | 46.2 ± 2 | 96.1 ± 2 | 274 to 275 |  | 
5 | CC(=O)Oc1cccc(-c2cc(-c3cc4cc(Cl)ccc4nc3N3CCOCC3)c(C#N)c(=O)[nH]2)c1 [7b, 3-(4-(6-Chloro-2-morpholin-4-yl-quinolin-3-yl)-5-cyano-6-oxo-1,6-dihydropyridin-2-yl)phenyl acetate] | 140 ± 9 | 0.110 ± 0.002 | 101.6 ± 1 | 119 ± 16 | 1.176 | 135 ± 2 | 107 ± 1 | 189 to 190 |  | 
6 | N#Cc1c(-c2cc3ccccc3nc2N2CCOCC2)cc(-c2cccc(O)c2)nc1OCC(=O)Nc1ccccc1 [11a, 2-((3-Cyano-6-(3-hydroxyphenyl)-4-(2-morpholin-4-yl-quinolin-3-yl)pyridin-2-yl)oxy)-N-phenylacetamide] | 144 ± 1 | 0.0906 ± 0.012 | 336 ± 22 | 158 ± 2 | 0.911 | 158 ± 26 | 126 ± 6 | 243 to 245 |  | 
7 | COc1ccc(NC(=O)COc2nc(-c3cccc(O)c3)cc(-c3cc4cc(OC)ccc4nc3N3CCOCC3)c2C#N)cc1 [11i, 2-((3-Cyano-6-(3-hydroxyphenyl)-4-(6-methoxy-2-morpholin-4-yl-quinolin-3-yl)pyridin-2-yl)oxy)-N-(4-methoxyphenyl)acetamide] | 258 ± 31 | 0.148 ± 0.0001 | 48.6 | 34.7 ± 3 | 7.435 | 63.4 ± 2 | 523 ± 40 | > 300 |  | 
8 | N#Cc1c(-c2cc3cc(Cl)ccc3nc2N2CCCCC2)cc(-c2cccc(O)c2)[nH]c1=O [5e, 4-(6-Chloro-2-(piperidin-1-yl)quinoline-3-yl)-6-(3-hydroxyphenyl)-2-oxo-1,2-dihydropyridine-3-carbonitrile] | 27.6 ± 1 | 0.0234 ± 0.001 | 36.1 ± 1 | 51.7 ± 5 | 0.534 | 40.9 ± 1 | 62.7 ± 27 | > 300 |  | 
9 | N#Cc1c(-c2cc3ccccc3nc2N2CCOCC2)cc(-c2cccc(O)c2)[nH]c1=O [5a, 6-(3-Hydroxyphenyl)-4-(morpholin-4-yl-quinolin-3-yl)-2-oxo-1,2-dihydropyridine-3-carbonitrile] | 60.3 ± 40 | 0.0192 ± 0.003 | 34.4 ± 6 | 38.8 ± 8 | 1.554 |  | 31.62 ± 0.1 | > 300 |  | 
10 | N#Cc1c(-c2cc3cc(Cl)ccc3nc2N2CCOCC2)cc(-c2cccc(O)c2)nc1OCC(=O)Nc1ccc(Cl)cc1 [11e, 2-((4-(6-Chloro-2-morpholin-4-yl-quinolin-3-yl)-3-cyano-6-(3-hydroxyphenyl)pyridin-2-yl)oxy)-N-(4-chlorophenyl)acetamide] | 85 ± 3 | 0.0178 ± 0.0001 | 41.6 |  | 2.733 |  |  | > 300 |  | 
11 | N#Cc1c(-c2cc3cc(Cl)ccc3nc2N2CCOCC2)cc(-c2cccc(O)c2)nc1OCC(=O)Nc1ccccc1 [11d, 2-((4-(6-Chloro-2-morpholin-4-yl-quinolin-3-yl)-3-cyano-6-(3-hydroxyphenyl)pyridin-2-yl)oxy)-N-phenylacetamide] | 107 ± 1 | 0.0455 ± 0.002 | 45.8 | < 100 | 2.054 | < 100 |  | 277 to 280 | 52.1 ± 2 | 59.4 ± 1
12 | COc1ccc(NC(=O)COc2nc(-c3cccc(O)c3)cc(-c3cc4cc(Cl)ccc4nc3N3CCOCC3)c2C#N)cc1 [11f, 2-((4-(6-Chloro-2-morpholin-4-yl-quinolin-3-yl)-3-cyano-6-(3-hydroxyphenyl)pyridin-2-yl)oxy)-N-(4-methoxyphenyl)acetamide] | 181 ± 13 | 0.0347 ± 0.003 | 36.3 |  | 5.262 |  |  | 228 to 230 |  | 
